Laboratory results published in patent publication US6747056B2, “K99-5041 substance and production thereof” (The Kitasato Institute, priority 2002, dated 2004).
pIC50: −log10 of the molar value.

Assays:
[1] = Grouping for acidic, neutral and basic; format: physicochemical
[2] = biological target: T1, Lanosterol synthase of human origin (Homo sapiens, UniProt P48449); experiment: Inhibitory action against lanosterol synthase of human origin (cell-free extract of transformed yeast, [14C](3S)-2,3-oxidosqualene substrate); format: biochemical; conditions: human lanosterol synthase expressed in yeast GIL77, cell-free extract 1 mg protein; 37° C., 60 minutes; substrate 0.17-0.42 μM; read-out: 50% inhibition concentration (IC50) for lanosterol synthase activity
T1 construct: made in house; host or cells: lanosterol synthase deficient yeast GIL77 (GAPDH promoter); cell-free extract
T1 sequence (P48449 1-732): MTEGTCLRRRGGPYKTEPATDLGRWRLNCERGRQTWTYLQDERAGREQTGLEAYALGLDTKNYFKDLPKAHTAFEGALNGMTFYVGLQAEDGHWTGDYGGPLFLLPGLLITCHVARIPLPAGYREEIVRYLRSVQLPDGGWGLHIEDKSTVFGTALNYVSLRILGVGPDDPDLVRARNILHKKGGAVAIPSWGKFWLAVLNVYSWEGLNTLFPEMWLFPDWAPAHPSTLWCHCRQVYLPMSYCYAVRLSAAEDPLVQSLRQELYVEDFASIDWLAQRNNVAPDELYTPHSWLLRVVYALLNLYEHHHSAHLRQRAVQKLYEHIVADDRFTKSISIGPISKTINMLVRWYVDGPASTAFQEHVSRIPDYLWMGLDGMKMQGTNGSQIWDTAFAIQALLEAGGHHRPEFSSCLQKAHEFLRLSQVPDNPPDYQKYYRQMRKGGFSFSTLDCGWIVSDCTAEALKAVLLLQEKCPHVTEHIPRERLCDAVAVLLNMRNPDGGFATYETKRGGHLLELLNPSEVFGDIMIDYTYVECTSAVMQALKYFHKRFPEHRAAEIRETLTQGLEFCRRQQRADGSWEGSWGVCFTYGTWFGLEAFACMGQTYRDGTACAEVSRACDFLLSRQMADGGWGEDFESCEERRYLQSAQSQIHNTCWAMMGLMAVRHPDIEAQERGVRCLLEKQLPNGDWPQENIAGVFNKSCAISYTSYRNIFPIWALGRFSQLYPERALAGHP
Method: (1) Inhibitory Action Against Lanosterol Synthase of Human Origin
Enzyme origin used is as follows. […] The thus obtained cell-free extract derived from transformed yeast was used.
The above transformed yeast was homogenized in buffer A [0.1 M potassium-phosphate buffer solution (pH 7.4), 0.45 M sucrose, 1 mM EDTA and 1 mM dithiothreitol] in the presence of acid treated glass beads using Waring blender [Type 500ACD, Sakuma Seisakusho Co., Japan]. Supernatant obtained by centrifugation, 8600×g, was prepared to make protein concentration of 10 mg/ml by adding the buffer A hereinabove to prepare the cell-free extract.
Assay of lanosterol synthase was performed as follows.
Subsequently, 6% potassium hydroxide/ethanol was added thereto to terminate the reaction, and the mixture was saponificated by incubating at 37° C. for 10 minutes, added cyclohexane 2 ml and stirred well. The cyclohexane layer 1.6 ml was dried up, spotted on TLC plate [silica gel plate (with concentration zone), Merck Inc., U.S.A., thickness 0.25 mm: Art. […] Next, amounts of unreacted [^14C](3S)-2,3-oxidosqualene and generated [^14C]lanosterol were quantitatively assayed using the photo image analyzer BAS-1500 (Fuji Photo Film Co., Japan) to calculate inhibition rate of lanosterol synthesis.

Solubility in solvent = format: physicochemical; conditions: for Solubility in solvent: organic solvents: methanol, ethanol, acetonitrile, ethyl acetate, chloroform and dimethyl sulfoxide

SMILES	Grouping for acidic, neutral and basic [1]	pIC50 [2]	Solubility in solvent: organic solvents (Solubility in solvent)	Solubility in solvent: water (Solubility in solvent)
CC1=NCC/C1=C\CCCCCCCCCCCCCC(C)C [K99-5041-C1x substance]	Weak basic substance	4.82	soluble	insoluble
CCCCCCCCCCCCCCCC/C=C1\CCN=C1C [K99-5041-C2x substance]	Weak basic substance	4.74	soluble	insoluble
